From US20230248626A1, “Compositions Comprising (Bio)-Alkanediols” (Symrise AG, priority 0001, published 2023)
Values after ≈ are worked out from the molar mass of the structure shown. Read-outs that look alike come from different tables or passages of the source.

Columns and labels:
Type in all cases: cell-based
Aspergillus brasiliensis = assay: MIC and Kull synergy index of 1,2-/2,3-alkanediol mixtures
Corynebacterium xerosis = assay: MIC test (growth inhibition, 96 well plates, OD)
Procedure: (§1) The MIC test is a test on growth inhibition. Estimation of Minimum Inhibitory Concentration (MIC) is executed in 96 well plates. Through the comparison of bacterial growth with positive and negative controls via optical density (OD), different concentrations of given test substances are evaluated.
(§2) Bacteria are cultivated under adjusted conditions based on information of the German Collection of Microorganisms and Cell Cultures (DSMZ) and stored in 50% Glycerol prior to use. Afterwards, the following method was applied: Adding growth medium (according to microorganism) to each well of the microplate. Adding the test-substances in different concentrations, positive controls (water controls only with medium) and negative controls (benchmarks according to organism). Adding the microorganism in a concentration of 10^6 CFU/ml (CFU=colony forming units). Incubation of the microplates at appropriate conditions.
(§3) According to resulting growth, substance concentrations are labelled either as inhibiting or not and MIC is defined as the lowest concentration where a complete growth inhibition is visible. Experiments at concentration limits (highest concentration labelled as growth and lowest concentration labelled as inhibiting) are performed at least twice.

Aspergillus niger = assay: MIC test (growth inhibition, 96 well plates, OD)
Procedure: as §1, §2, §3

Candida albicans = assay: MIC test (growth inhibition, 96 well plates, OD); details: read-out: Minimum Inhibitory Concentration (MIC)
Procedure: as §1, §2, §3

Escherichia coli = assay: MIC test (growth inhibition, 96 well plates, OD); details: read-out: Minimum Inhibitory Concentration (MIC)
Procedure: as §1, §2, §3

Staphylococcus aureus = assay: MIC test (growth inhibition, 96 well plates, OD); details: read-out: Minimum Inhibitory Concentration (MIC)
Procedure: as §1, §2, §3

Propionibacterium acnes = assay: MIC test (growth inhibition, 96 well plates, OD); details: Cutibacterium acnes; read-out: Minimum Inhibitory Concentration (MIC)
Procedure: as §1, §2, §3

Corynebacterium jeikeium = assay: MIC test (growth inhibition, 96 well plates, OD); details: read-out: Minimum Inhibitory Concentration (MIC)
Procedure: as §1, §2, §3

[1] = system: Staphylococcus epidermidis; assay: MIC test (growth inhibition, 96 well plates, OD)
Procedure: as §1, §2, §3

Anaerococcus octavius = assay: MIC test (growth inhibition, 96 well plates, OD)
Procedure: as §1, §2, §3

Staphylococcus hominis = assay: MIC test (growth inhibition, 96 well plates, OD); details: read-out: Minimum Inhibitory Concentration (MIC)
Procedure: as §1, §2, §3

[2] = system: Pseudomonas aeruginosa (PA); assay: Preservation efficacy test (PET), European Pharmacopoeia 5.1.3
Procedure: (§4) The preservation efficacy test (PET) was performed in accordance with European Pharmacopoeia § 5.1.3: The test is a reference European Pharmacopoeia method, that is to be used to evaluate the preservation system of a cosmetic or pharmaceutical preparation. The test consists of challenging the preparation under test, with prescribed inoculums of suitable microorganisms. The preservation porperties of the preparation are adequate if, in the conditions of the test, there is a significant fall or no increase, as appropriate, in the number of microorganisms in the inoculated preparations after the time prescribed.
(§5) The test microorganisms which were used, are the following:
(§6) Pseudomonas aeruginosa (PA) (bacterium); Staphylococcus aureus (SA) (bacterium); Escherichia coli (EC) (bacterium); Candida albicans (CA) (yeast); and Aspergillus brasiliensis (AB) (fungus).

[3] = system: Aspergillus brasiliensis (AB); assay: as above
Procedure: as §4, §5, §6

[4] = system: Staphylococcus aureus (SA); assay: as above
Procedure: as §4, §5, §6

Candida albicans (CA) = assay: as above
Procedure: as §4, §5, §6

Escherichia coli (EC) = assay: as above
Procedure: as §4, §5, §6

human sebaceous glands = assay: Sebum production of micro-dissected, cultured human sebaceous glands (lipids/proteins after six days); parameters: sebum reduction: concentration or dose not given beside the values; details: for sebum reduction: compared to untreated control, six days, single donor (FIG. 4)
Procedure: Additional tests were performed with human sebaceous glands in order to verify the modulatory activity of different 1,2-alkanediols and 2,3-alkanediols on sebum secretion. Several microbial species on the skin are lipid dependent and feed on the human sebum (e.g. Corynebacterium, Propionibacterium). Accordingly, sebum reduction can indirectly support the reduction of microorganisms on the skin and in this way also indirectly support e.g. dandruff or acne reduction.
For these experiments sebaceous glands had been micro-dissected and cultured with medium. The medium without any supplement served as untreated control. Medium with 5 μM Capsaicin served as positive control. Additionally, culture medium was supplemented with different concentrations of alkanediols. After six days the sebaceous glands were collected and lipids and proteins quantified. The total lipid amount being representative of sebum production was obtained by normalizing the quantified lipids upon the quantified proteins (i.e. mg of lipids/mg of proteins).

Compound: CCCCCCCC(O)CO (centres unmarked) [1,2-nonanediol]
- MIC (Aspergillus brasiliensis; single 1,2-alkanediol, read-out: MIC Component A): 500 µg/mL
- MIC (Corynebacterium xerosis): 2500 µg/mL (≈ 15.6 mM)
- MIC (Aspergillus niger): 2500 µg/mL (≈ 15.6 mM)
- MIC (Candida albicans): 1000 µg/mL (≈ 6.24 mM)
- MIC (Escherichia coli): 500 µg/mL (≈ 3.12 mM)
- MIC (Staphylococcus aureus): 1000 µg/mL (≈ 6.24 mM)
- MIC (Propionibacterium acnes): 1000 µg/mL (≈ 6.24 mM)
- MIC (Corynebacterium jeikeium): 2500 µg/mL (≈ 15.6 mM)
- MIC [1]: 1000 µg/mL (≈ 6.24 mM)
- MIC (Anaerococcus octavius): 1000 µg/mL (≈ 6.24 mM)
- MIC (Staphylococcus hominis): 1000 µg/mL (≈ 6.24 mM)
- number of microorganisms after 2 days ([2]; 0.1% in o/w emulsion): 1
- number of microorganisms after 7 days ([2]; 0.1% in o/w emulsion): 1
- number of microorganisms after 14 days ([2]; 0.1% in o/w emulsion): 1
- number of microorganisms after 28 days ([2]; 0.1% in o/w emulsion): 1
- number of microorganisms after 2 days ([3]; 0.1% in o/w emulsion): 2,300,000
- number of microorganisms after 7 days ([3]; 0.1% in o/w emulsion): 1,300,000
- number of microorganisms after 14 days ([3]; 0.1% in o/w emulsion): 1,200,000
- number of microorganisms after 28 days ([3]; 0.1% in o/w emulsion): 900,000
- number of microorganisms after 2 days ([4]; 0.1% in o/w emulsion): 2,300
- number of microorganisms after 7 days ([4]; 0.1% in o/w emulsion): 1
- number of microorganisms after 14 days ([4]; 0.1% in o/w emulsion): 1
- number of microorganisms after 28 days ([4]; 0.1% in o/w emulsion): 1
- number of microorganisms after 2 days (Candida albicans (CA); 0.1% in o/w emulsion): 1,600,000
- number of microorganisms after 7 days (Candida albicans (CA); 0.1% in o/w emulsion): 120,000
- number of microorganisms after 14 days (Candida albicans (CA); 0.1% in o/w emulsion): 890
- number of microorganisms after 28 days (Candida albicans (CA); 0.1% in o/w emulsion): 1
- number of microorganisms after 2 days (Escherichia coli (EC); 0.1% in o/w emulsion): 6,700
- number of microorganisms after 7 days (Escherichia coli (EC); 0.1% in o/w emulsion): 1
- number of microorganisms after 14 days (Escherichia coli (EC); 0.1% in o/w emulsion): 1
- number of microorganisms after 28 days (Escherichia coli (EC); 0.1% in o/w emulsion): 1
- sebum reduction (human sebaceous glands): 28%
- concentration dependency of sebum reduction (in words) (human sebaceous glands; different donor (FIG. 5)): experimentally confirmed

Compound: CCCCCCC(O)C(C)O (centres unmarked) [2,3-nonanediol]
- MIC (Aspergillus brasiliensis; single 2,3-alkanediol, read-out: MIC Component B): 1000 µg/mL
- MIC (Candida albicans): 2500 µg/mL (≈ 15.6 mM)
- MIC (Escherichia coli): 1000 µg/mL (≈ 6.24 mM)
- MIC (Staphylococcus aureus): 2500 µg/mL (≈ 15.6 mM)
- MIC (Propionibacterium acnes): 2500 µg/mL (≈ 15.6 mM)
- MIC (Corynebacterium jeikeium): 2500 µg/mL (≈ 15.6 mM)
- MIC (Staphylococcus hominis): 5000 µg/mL (≈ 31.2 mM)
- number of microorganisms after 2 days ([2]; 0.1% in o/w emulsion): 1
- number of microorganisms after 7 days ([2]; 0.1% in o/w emulsion): 1
- number of microorganisms after 14 days ([2]; 0.1% in o/w emulsion): 1
- number of microorganisms after 28 days ([2]; 0.1% in o/w emulsion): 1
- number of microorganisms after 2 days ([2]; 0.1% in shampoo): 160,000
- number of microorganisms after 7 days ([2]; 0.1% in shampoo): 2,000,000
- number of microorganisms after 14 days ([2]; 0.1% in shampoo): 10,000,000
- number of microorganisms after 28 days ([2]; 0.1% in shampoo): 8,800,000
- number of microorganisms after 2 days ([2]; 0.4% in shampoo): 17,000
- number of microorganisms after 7 days ([2]; 0.4% in shampoo): 1
- number of microorganisms after 14 days ([2]; 0.4% in shampoo): 1
- number of microorganisms after 28 days ([2]; 0.4% in shampoo): 1
- number of microorganisms after 2 days ([3]; 0.1% in o/w emulsion): 1,200,000
- number of microorganisms after 7 days ([3]; 0.1% in o/w emulsion): 1,100,000
- number of microorganisms after 14 days ([3]; 0.1% in o/w emulsion): 890,000
- number of microorganisms after 28 days ([3]; 0.1% in o/w emulsion): 1,100,000
- number of microorganisms after 2 days ([3]; 0.1% in shampoo): 1,800,000
- number of microorganisms after 7 days ([3]; 0.1% in shampoo): 2,000,000
- number of microorganisms after 14 days ([3]; 0.1% in shampoo): 680,000
- number of microorganisms after 28 days ([3]; 0.1% in shampoo): 530,000
- number of microorganisms after 2 days ([3]; 0.4% in shampoo): 2,100,000
- number of microorganisms after 7 days ([3]; 0.4% in shampoo): 1,800,000
- number of microorganisms after 14 days ([3]; 0.4% in shampoo): 1,200,000
- number of microorganisms after 28 days ([3]; 0.4% in shampoo): 1,100,000
- number of microorganisms after 2 days ([4]; 0.1% in o/w emulsion): 2,200,000
- number of microorganisms after 7 days ([4]; 0.1% in o/w emulsion): 66,000
- number of microorganisms after 14 days ([4]; 0.1% in o/w emulsion): 1
- number of microorganisms after 28 days ([4]; 0.1% in o/w emulsion): 1
- number of microorganisms after 2 days ([4]; 0.1% in shampoo): 31,000
- number of microorganisms after 7 days ([4]; 0.1% in shampoo): 200
- number of microorganisms after 14 days ([4]; 0.1% in shampoo): 1
- number of microorganisms after 28 days ([4]; 0.1% in shampoo): 1
- number of microorganisms after 2 days ([4]; 0.4% in shampoo): 1,800
- number of microorganisms after 7 days ([4]; 0.4% in shampoo): 1
- number of microorganisms after 14 days ([4]; 0.4% in shampoo): 1
- number of microorganisms after 28 days ([4]; 0.4% in shampoo): 1
- number of microorganisms after 2 days (Candida albicans (CA); 0.1% in o/w emulsion): 2,000,000
- number of microorganisms after 7 days (Candida albicans (CA); 0.1% in o/w emulsion): 2,500,000
- number of microorganisms after 14 days (Candida albicans (CA); 0.1% in o/w emulsion): 1,900,000
- number of microorganisms after 28 days (Candida albicans (CA); 0.1% in o/w emulsion): 970,000
- number of microorganisms after 2 days (Candida albicans (CA); 0.1% in shampoo): 110,000
- number of microorganisms after 7 days (Candida albicans (CA); 0.1% in shampoo): 29,000
- number of microorganisms after 14 days (Candida albicans (CA); 0.1% in shampoo): 870
- number of microorganisms after 28 days (Candida albicans (CA); 0.1% in shampoo): 1
- number of microorganisms after 2 days (Candida albicans (CA); 0.4% in shampoo): 68,000
- number of microorganisms after 7 days (Candida albicans (CA); 0.4% in shampoo): 14,000
- number of microorganisms after 14 days (Candida albicans (CA); 0.4% in shampoo): 690
- number of microorganisms after 28 days (Candida albicans (CA); 0.4% in shampoo): 1
- number of microorganisms after 2 days (Escherichia coli (EC); 0.1% in o/w emulsion): 810,000
- number of microorganisms after 7 days (Escherichia coli (EC); 0.1% in o/w emulsion): 27,000
- number of microorganisms after 14 days (Escherichia coli (EC); 0.1% in o/w emulsion): 1,100
- number of microorganisms after 28 days (Escherichia coli (EC); 0.1% in o/w emulsion): 1
- number of microorganisms after 2 days (Escherichia coli (EC); 0.1% in shampoo): 2,300,000
- number of microorganisms after 7 days (Escherichia coli (EC); 0.1% in shampoo): 4,200,000
- number of microorganisms after 14 days (Escherichia coli (EC); 0.1% in shampoo): 1,800,000
- number of microorganisms after 28 days (Escherichia coli (EC); 0.1% in shampoo): 1,100,000
- number of microorganisms after 2 days (Escherichia coli (EC); 0.4% in shampoo): 3,200,000
- number of microorganisms after 7 days (Escherichia coli (EC); 0.4% in shampoo): 4,200,000
- number of microorganisms after 14 days (Escherichia coli (EC); 0.4% in shampoo): 1,300,000
- number of microorganisms after 28 days (Escherichia coli (EC); 0.4% in shampoo): 1,400,000
- sebum reduction (human sebaceous glands): 41%
